Source: publication PMC7866885 (PeerJ, 2021)

Assays:
Experiment in all cases: DHFR activity, NADPH consumption at […] nm
Assay type in all cases: biochemical
[1] = target: T1, S. suis dihydrofolate reductase (SsDHFR) (Streptococcus suis, UniProt A0A0H3N4C4); conditions: 1 µM inhibitor; 0.1 mM dihydrofolate, 0.1 mM NADPH, 50 mM TES pH 7.0; lysate of overexpressing E. coli BL21(DE3), host DHFR background present
T1 construct: gene dyr; full-length dhfr in pET15b (NdeI/BamHI, N-terminal vector tag kept); clarified lysate of E. coli BL21(DE3), not purified
T1 sequence (A0A0H3N4C4 1-170): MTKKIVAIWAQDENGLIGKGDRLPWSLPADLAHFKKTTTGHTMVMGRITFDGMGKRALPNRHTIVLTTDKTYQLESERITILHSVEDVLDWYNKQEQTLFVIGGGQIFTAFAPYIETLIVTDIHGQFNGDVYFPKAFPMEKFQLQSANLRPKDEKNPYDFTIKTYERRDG

[2] = target: T1, S. suis dihydrofolate reductase (SsDHFR)
[3] = target: T1, S. suis dihydrofolate reductase (SsDHFR); conditions: 0.1 mM dihydrofolate, 0.1 mM NADPH, 50 mM TES pH 7.0; lysate

Row | Compound | % activity at 1 μM [1] | further results
1 | CCc1nc(N)nc(N)c1-c1ccc(Cl)cc1 [pyrimethamine] | Trimethoprim, pyrimethamine, and cycloguanil were moderately effective at inhibiting SsDHFR | –
2 | COc1ccc(OC)c(NCc2ccc3nc(N)nc(N)c3c2Cl)c1 [MMV675968] | – | remaining activity at 1 µM [2]: 2%
3 | CC1(C)N=C(N)N=C(N)N1c1ccc(Cl)cc1 [cycloguanil] | Trimethoprim, pyrimethamine, and cycloguanil were moderately effective at inhibiting SsDHFR | –
4 | NC(=O)C1=CN([C@@H]2O[C@H](COP(=O)(O)OP(=O)(O)OC[C@H]3O[C@@H](n4cnc5c(N)ncnc54)[C@H](OP(=O)(O)O)[C@@H]3O)[C@@H](O)[C@H]2O)C=CC1 [NADPH] | – | DHFR activity, NADPH consumption at 340 nm [3]: DHFR uses NADPH as a cofactor for the conversion of dihydrofolate (DHF) to tetrahydrofolate (THF)
